Assay results taken from PubChem BioAssay AID463074 (Broad Institute, 2010).
Calls of active or inactive are those of the source.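 Rule for the calls: active = AC50 no more than tenfold above the top dose tested, or full inhibition at every dose with a flat fit (cut at about 19 µM in these data); inconclusive = flat curve fit with inhibition between 30% and 70%, or poor fit; inactive = AC50 more than tenfold above the top dose tested.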

Tested on: HMLE_sh_eGFP viability, CellTiter-Glo luminescence, 72 h
Assay: viability loss of HMLE_sh_eGFP cells – cell-based, luminescence, counter-screen for HMLE_sh_ECad selective toxicity project, dose response (AID 463074);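 note: counterscreen control line to flag general toxicity for the HMLE_sh_ECad screen; potency for loss of viability as luminescence drops below DMSO wells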

CCCC(=O)Nc1nc2ccc(NC(=O)c3c(F)c(F)c(OC)c(F)c3F)cc2s1
AC50: 1.56 µM

CC(C)=CCC/C(C)=C/Cc1c(O)ccc(C(=O)/C=C/c2ccc(O)cc2)c1O
AC50: 6.42 µM

CC(C)(C)C1CCc2c(sc(NC(=O)CSc3ncn[nH]3)c2C#N)C1 (centres undefined)
AC50: 4.79 µM

O=C(CS(=O)c1ccc(C(F)(F)F)cc1[N+](=O)[O-])Oc1ccccc1 (centres undefined)
AC50: 5.22 µM

CCc1c(C2(O)CCCCC2)[nH]c2c(C(=O)OC)cc(Cl)cc12
AC50: 2.69 µM

CCn1c(N2CCN(S(=O)(=O)c3ccc(F)cc3)CC2)nc2ccccc21
AC50: > 19.5 µM (inactive)

COc1ccc2sc(-c3ccc(N(C)C)cc3)c(-c3ccc4cc[nH]c4c3)c2c1
AC50: 16.5 µM

C=C(C(=O)c1ccccc1)C(C)C(=C)C(=O)c1ccccc1
AC50: 1.85 µM

O=c1nc(/C=C/c2ccc(Cl)cc2Cl)cc(C(F)(F)F)[nH]1
AC50: 1.55 µM

CCOC(=O)c1c(NC(=O)C(=O)N/N=C/c2ccccc2O)sc2c1CCCCC2
AC50: 2.84 µM

CCOC(=O)N1CCN(CCC(=O)c2ccc(Cl)cc2)CC1
AC50: 14 µM

COc1cc(/C=C/C(=O)c2ccc3c(c2)OCO3)cc(Cl)c1O
AC50: 10.8 µM

Cn1cccc1/C=C1/C(=O)NC(=S)N(Cc2ccc(F)cc2)C1=O
AC50: 1.7 µM

OC(CNCC(c1ccc(Cl)cc1Cl)c1c[nH]c2ccccc12)c1ccccc1 (centres undefined)
AC50: 2.88 µM

O=C(Nc1ccc(Cl)cc1)Nc1ccccc1Sc1ncc([N+](=O)[O-])s1
AC50: 6.81 µM

O=C(Nc1ccc(-c2csc(Nc3ccc(Cl)cc3)n2)cc1)c1cc([N+](=O)[O-])cc(C(F)(F)F)c1
AC50: 3.08 µM

CCCOc1ccc2c(c1)C(=NN=C(N)N)c1cc(OCCC)ccc1-2
AC50: 3.7 µM

O=C(NC(c1ccc(Cl)cc1)c1c(O)ccc2ccccc12)c1ccccc1 (centres undefined)
AC50: 2 µM

Cn1cc([N+](=O)[O-])c(C(=O)Nc2ccc(-c3nc4ccccc4o3)cc2)n1
AC50: 2.33 µM

CN(C)CCCn1c(=S)[nH]c2sc3c(c2c1=O)CCCC3
AC50: > 19.5 µM (inactive)

COc1cc(SC#N)ccc1N=Cc1c(C)[nH]n(-c2ccc(C)cc2)c1=O
AC50: 5.99 µM

Cc1cccn2c(/C=N/OCc3cccc(F)c3)c(-c3ccc(Cl)cc3)nc12
AC50: 10.5 µM

CCCc1nc2ccccc2c(C(=O)OCC(=O)N2CCc3ccccc32)c1CC
AC50: 3.97 µM

C[C@@]12CCC=C[C@H]1[C@H](c1ccc(F)c(/C=C/c3ccccc3)c1)N(Cc1ccccc1)C2=O
AC50: 7.18 µM

CN(C)c1ccc(-c2cc(O)c3ncccc3c2)cc1
AC50: 12.8 µM

Cc1ccc(S(=O)(=O)N2CCN(C(=O)COc3ccc(NC(=O)c4ccco4)cc3)CC2)cc1
AC50: > 19.5 µM (inactive)

CC/C(=N\Nc1ccccc1)c1c(O)n(-c2ccc(OC)cc2)c(=O)[nH]c1=O
AC50: 2.13 µM

S=C(NCC1CCCCC1)Nc1ccc(Oc2ccccc2)cc1
AC50: 5.41 µM

Cc1cc(Br)c(OCc2ccc(C(=O)N/N=C/c3ccc[nH]3)cc2)c(Br)c1
AC50: 1.32 µM

COc1ccc(C)cc1NS(=O)(=O)c1ccc(NC(=O)CN(c2cc([N+](=O)[O-])ccc2C)S(C)(=O)=O)cc1
AC50: 3.8 µM

COc1ccc(-c2sc3ccc(OC)cc3c2C#CCCO)cc1
AC50: 7.27 µM

Cc1ccc(-c2nc(C(Cl)Cl)c3ccccc3n2)cc1
AC50: 1.33 µM

COc1cc(-c2noc(C)c2/C=C/c2ccc(OC(C)=O)cc2)cc(OC)c1OC
AC50: 0.292 µM

COc1ccccc1NC(=O)Nc1ccc(-n2ccc(C(F)(F)F)n2)cc1
AC50: 10.3 µM

C[C@@H]1CN([C@@H](C)CO)C(=O)c2cc(NC(=O)Nc3ccc(F)cc3)ccc2O[C@@H]1CN(C)Cc1ccc(Oc2ccccc2)cc1
AC50: 3.48 µM

COc1ccc(C(C)(C)C)cc1NC(=O)Nc1ccc2c(c1)OCO2
AC50: 8.21 µM

O=C(CC1Nc2ccccc2NC1=O)Nc1ccccc1 (centres undefined)
AC50: 1.04 µM

O=c1c2ccccc2nc(COc2ccccc2)n1/N=C/c1cc([N+](=O)[O-])ccc1O
AC50: > 19.5 µM (inactive)

CCn1c2ccccc2c2cc(NS(=O)(=O)c3ccc(C)cc3)ccc21
AC50: 4.53 µM

Cc1noc(C)c1COc1cccc(C(=O)Nc2ccc(OCc3ccccc3)cc2)c1
AC50: 15.5 µM

CCCN1CCc2c(sc(NC(=O)c3ccc(S(=O)(=O)N(C)c4ccccc4)cc3)c2C(=O)NC)C1
AC50: 5.34 µM

CS(=O)(=O)c1ccc(C(=O)OCC(=O)NC23CC4CC(CC(C4)C2)C3)cc1[N+](=O)[O-]
AC50: 2.39 µM

C[C@H]1CN([C@@H](C)CO)C(=O)Cc2cc(NC(=O)CCC(F)(F)F)ccc2O[C@H]1CN(C)Cc1ccc(-c2ccccc2)cc1
AC50: 6.9 µM

O=C(C[n+]1ccccc1)NNc1ccccc1
AC50: 1.78 µM

CC1(C)Cc2ccccc2/C(=C/C(=O)c2ccccc2)N1
AC50: 7.27 µM

C=C(CC[C@@H](O)C(C)(C)O)[C@H]1CC[C@]2(C)[C@@H]1CCC1[C@@]3(C)CCC(=O)C(C)(C)C3CC[C@]12C (some centres undefined)
AC50: 2.52 µM

Cc1nc2ccccc2n1-c1nc(-c2ccco2)cc(C(F)(F)F)n1
AC50: 0.817 µM

CC(=O)N(C)c1ccc(OCC(O)Cn2c3ccc(Cl)cc3c3cc(Cl)ccc32)cc1 (centres undefined)
AC50: 1.65 µM

COc1cc(/C=N/N(c2ccccc2)c2ccccc2)ccc1O
AC50: 6.34 µM

N=c1c2c(ncn1Cc1ccco1)Oc1c(ccc3ccccc13)C2c1ccccc1 (centres undefined)
AC50: 3.92 µM

CC1=NOC(=O)/C1=C\c1ccc(-c2cc(Cl)ccc2Cl)o1
AC50: 1.06 µM

Cc1ccc2sc(N(CCCN(C)C)C(=O)c3ccc(S(=O)(=O)N(C)C4CCCCC4)cc3)nc2c1C
AC50: 3.63 µM

Cc1cccc(NC(=O)c2ccc(COc3ccc(Cl)cc3Cl)o2)n1
AC50: 3.38 µM

CCCC(=O)NC(c1ccco1)c1cc([N+](=O)[O-])c2cccnc2c1O (centres undefined)
AC50: 7.35 µM

O=C(/C=C/c1ccc(Cl)c([N+](=O)[O-])c1)Nc1cccc(NC(=O)c2ccco2)c1
AC50: 1.69 µM

CC(=O)NC(c1cc(Cl)c2cccnc2c1O)C1CC1 (centres undefined)
AC50: 9.04 µM

CN(C)/C=C(\C=N\OCc1ccc(Cl)cc1Cl)C(=O)Nc1ccc(Cl)c(Cl)c1
AC50: 4.22 µM

Cc1ccc(Nc2nc(N)c([N+](=O)[O-])c(NCc3ccco3)n2)cc1C
AC50: 7.19 µM

Cc1nc2ccc(Br)cn2c1C(=O)N/N=C\c1ccc(C(C)C)cc1
AC50: 4.34 µM

C[C@]12CC[C@H](O)C[C@H]1CC[C@@H]1C2CC[C@]2(C)[C@@H](C3=CC(=O)OC3)[C@@H](O)C[C@]12O (some centres undefined)
AC50: 1.55 µM

O=C1c2cc(Br)ccc2N(Cc2ccc(Br)cc2)S(=O)(=O)C1c1cc(Cl)c(Cl)cc1[N+](=O)[O-] (centres undefined)
AC50: 3.07 µM

c1ccc(-c2sc3ccccc3c2-c2ccc(OCCN3CCOCC3)cc2)cc1
AC50: 3.24 µM

Cc1cc(Nc2cccc(F)c2)nc(-c2ccccc2O)n1
AC50: 6.41 µM

CC(C)(C)c1ccc(NC(=O)N2CCCN(c3c(Cl)cncc3Cl)CC2)cc1
AC50: 2.85 µM

CC1CCN(CC(CS(=O)(=O)c2ccc([N+](=O)[O-])cc2)N2CCC(C)CC2)CC1 (centres undefined)
AC50: 6.58 µM

CC(C)(C)c1ccc(Oc2ccc(NC(=O)c3cccs3)cn2)cc1
AC50: 2.88 µM

CC(c1ccccc1)N1C(=O)/C(=C/c2ccncc2)SC1=S (centres undefined)
AC50: 17.2 µM

Oc1ccc(/C=C/c2nc(-c3ccccc3O)n(-c3ccccc3)n2)cc1
AC50: 6.7 µM

c1ccc(CN2CCC(Nc3nc(-c4cccs4)nc4ccccc34)CC2)cc1
AC50: 6.8 µM

O=C(CN1CCCCCC1)Nc1ccccc1Oc1ccccc1
AC50: 0.808 µM

COc1ccc(C2c3ccc4ccccc4c3Oc3ncn(Cc4ccco4)c(=N)c32)cc1OC (centres undefined)
AC50: 7.58 µM

Cc1noc(C)c1CSc1nc2ccccc2nc1NS(=O)(=O)c1ccc(Cl)cc1
AC50: 1.79 µM

COc1cc(OC)cc(-c2sc3ccc(OC)cc3c2-c2ccc3cc[nH]c3c2)c1
AC50: 3.34 µM

O=C(CNC(=O)C1COc2ccccc2O1)N/N=C/c1ccc(O)cc1O (centres undefined)
AC50: 5.21 µM
